Legend:
[1] = DVS (dynamic vapor sorption) hygroscopicity testing; assay type: physicochemical; conditions: for hygroscopic weight gain under normal storage conditions / hygroscopic weight gain under accelerated experimental conditions / hygroscopic weight gain under extreme conditions: DVS; for hygroscopic weight gain under normal storage conditions: 25° C. and 60% RH; for hygroscopic weight gain under accelerated experimental conditions: 70% RH; for hygroscopic weight gain under extreme conditions: 90% RH; for crystal form re-identification after DVS testing: XRPD after DVS
Experimental: DVS refers to dynamic vapor sorption: Surface Measurement Systems instrinsic was adopted; the humidity started at 50%, the humidity range investigated was 0%-95%, and the humidity was increased in increments of 10%; the criterion was that each gradient mass change dM/dT is less than 0.002%, TMAX 360 min, two cycles.

[2] = Long-term/accelerated stability (sealed, 25° C./60% RH and 40° C./75% RH); conditions: for chemical stability / physical stability: 25° C./60% RH and 40° C./75% RH
[3] = Influencing factor stability (open flasks, light, high temperature, high humidity, 30 days); conditions: for chemical stability under high humidity conditions: high humidity conditions only; for physical stability: light exposure (4500 Lux), 40° C. and 60° C., high humidity RH 75% and 92.5%
[4] = 25° C., 60% RH, sealed, 1 month
[5] = 25° C., 60% RH, sealed, 2 months
[6] = 25° C., 60% RH, sealed, 3 months
[7] = 25° C., 60% RH, sealed, 6 months
[8] = 40° C., 75% RH, sealed, 1 month
[9] = 40° C., 75% RH, sealed, 2 months
[10] = 40° C., 75% RH, sealed, 3 months
[11] = 40° C., 75% RH, sealed, 6 months
[12] = Light exposure (4500 Lux), 5 days, open flask
[13] = Light exposure (4500 Lux), 10 days, open flask
[14] = Light exposure (4500 Lux), 30 days, open flask

CCO[C@H]1C[C@H]2CC[C@@](c3ccc(C(=O)O)cc3)(C1)N2Cc1c(OC)cc(C)c2[nH]ccc12.Cl [crystal form II of the hydrochloride, 4-((1S,3S,5R)-3-ethoxy-8-((5-methoxy-7-methyl-1H-indol-4-yl)methyl)-8-azabicyclo[3.2.1]octan-1-yl)benzoic acid-hydrochloride]
did not change: crystal form re-identification after DVS testing [1]
100.0%: Purity % [2, 4] | Purity % [2, 5] | Purity % [2, 6] | Purity % [2, 7] | Purity % [2, 8] | Purity % [2, 9] | Purity % ([2]; Initial) | Purity % ([3]; 75% RH, 5 days, open flask) | Purity % ([3]; 75% RH, 10 days, open flask) | Purity % ([3]; 75% RH, 30 days, open flask) | Purity % ([3]; 92.5% RH, 5 days, open flask) | Purity % ([3]; 92.5% RH, 10 days, open flask) | Purity % ([3]; 92.5% RH, 30 days, open flask) | Purity % ([3]; Initial, 0 days)
good: chemical stability ([2]; 6 months) | physical stability ([2]; 6 months) | chemical stability under high humidity conditions ([3]; 30 days) | physical stability ([3]; 30 days)
No change: Salt form [2, 6] | Salt form [2, 7] | Salt form ([3]; 40° C., 5 days, open flask) | Salt form ([3]; 40° C., 10 days, open flask) | Salt form ([3]; 40° C., 30 days, open flask) | Salt form ([3]; 60° C., 5 days, open flask) | Salt form ([3]; 60° C., 10 days, open flask) | Salt form ([3]; 60° C., 30 days, open flask) | Salt form ([3]; 75% RH, 5 days, open flask) | Salt form ([3]; 75% RH, 10 days, open flask) | Salt form ([3]; 75% RH, 30 days, open flask) | Salt form ([3]; 92.5% RH, 5 days, open flask) | Salt form ([3]; 92.5% RH, 10 days, open flask) | Salt form ([3]; 92.5% RH, 30 days, open flask) | Salt form [3, 12] | Salt form [3, 13] | Salt form [3, 14]
97.4%: Purity % ([3]; 60° C., 30 days, open flask)
99.4%: Purity % ([3]; 40° C., 5 days, open flask) | Purity % ([3]; 60° C., 5 days, open flask)
about 5.00%: hygroscopic weight gain under extreme conditions [1]
99.3%: Purity % ([3]; 40° C., 10 days, open flask)
about 3.93%: hygroscopic weight gain under normal storage conditions [1]
98.6%: Purity % ([3]; 40° C., 30 days, open flask)
99.2%: Purity % [3, 13]
99.9%: Purity % [2, 10] | Purity % [2, 11]
Crystal form: Salt form ([3]; Initial, 0 days)
98.8%: Purity % ([3]; 60° C., 10 days, open flask)
White solid: Color and state ([3]; 40° C., 5 days, open flask) | Color and state ([3]; 40° C., 10 days, open flask) | Color and state ([3]; 40° C., 30 days, open flask) | Color and state ([3]; 60° C., 5 days, open flask) | Color and state ([3]; 60° C., 10 days, open flask) | Color and state ([3]; 60° C., 30 days, open flask) | Color and state ([3]; 75% RH, 5 days, open flask) | Color and state ([3]; 75% RH, 10 days, open flask) | Color and state ([3]; 75% RH, 30 days, open flask) | Color and state ([3]; 92.5% RH, 5 days, open flask) | Color and state ([3]; 92.5% RH, 10 days, open flask) | Color and state ([3]; 92.5% RH, 30 days, open flask) | Color and state ([3]; Initial, 0 days) | Color and state [3, 12] | Color and state [3, 13] | Color and state [3, 14]
about 4.28%: hygroscopic weight gain under accelerated experimental conditions [1]
99.8%: Purity % [3, 12]
96.5%: Purity % [3, 14]

CCO[C@H]1C[C@H]2CC[C@@](c3ccc(C(=O)O)cc3)(C1)N2Cc1c(OC)cc(C)c2[nH]ccc12.Cl [crystal form III of the hydrochloride, 4-((1S,3S,5R)-3-ethoxy-8-((5-methoxy-7-methyl-1H-indol-4-yl)methyl)-8-azabicyclo[3.2.1]octan-1-yl)benzoic acid-hydrochloride]
Crystal form: Salt form ([3]; Initial, 0 days)
White solid: Color and state ([3]; 40° C., 5 days, open flask) | Color and state ([3]; 40° C., 10 days, open flask) | Color and state ([3]; 40° C., 30 days, open flask) | Color and state ([3]; 60° C., 5 days, open flask) | Color and state ([3]; 60° C., 10 days, open flask) | Color and state ([3]; 60° C., 30 days, open flask) | Color and state ([3]; 75% RH, 5 days, open flask) | Color and state ([3]; 75% RH, 10 days, open flask) | Color and state ([3]; 75% RH, 30 days, open flask) | Color and state ([3]; 92.5% RH, 5 days, open flask) | Color and state ([3]; 92.5% RH, 10 days, open flask) | Color and state ([3]; 92.5% RH, 30 days, open flask) | Color and state ([3]; Initial, 0 days) | Color and state [3, 12] | Color and state [3, 13] | Color and state [3, 14]
99.5%: Purity % [2, 9] | Purity % [2, 10]
about 2.57%: hygroscopic weight gain under normal storage conditions [1]
about 2.960%: hygroscopic weight gain under accelerated experimental conditions [1]
No change: Salt form ([3]; 40° C., 5 days, open flask) | Salt form ([3]; 40° C., 10 days, open flask) | Salt form ([3]; 40° C., 30 days, open flask) | Salt form ([3]; 60° C., 5 days, open flask) | Salt form ([3]; 60° C., 10 days, open flask) | Salt form ([3]; 60° C., 30 days, open flask) | Salt form ([3]; 75% RH, 5 days, open flask) | Salt form ([3]; 75% RH, 10 days, open flask) | Salt form ([3]; 75% RH, 30 days, open flask) | Salt form ([3]; 92.5% RH, 5 days, open flask) | Salt form ([3]; 92.5% RH, 10 days, open flask) | Salt form ([3]; 92.5% RH, 30 days, open flask) | Salt form [3, 12] | Salt form [3, 13] | Salt form [3, 14]
99.6%: Purity % [2, 4] | Purity % [2, 5] | Purity % [2, 6] | Purity % [2, 7] | Purity % [2, 8] | Purity % ([2]; Initial) | Purity % ([3]; 40° C., 5 days, open flask) | Purity % ([3]; 75% RH, 5 days, open flask) | Purity % ([3]; 75% RH, 10 days, open flask)
98.4%: Purity % [3, 13]
98.5%: Purity % ([3]; 60° C., 30 days, open flask)
did not change: crystal form re-identification after DVS testing [1]
99.4%: Purity % [2, 11] | Purity % ([3]; 40° C., 10 days, open flask)
99.3%: Purity % ([3]; 60° C., 5 days, open flask)
about 4.5700%: hygroscopic weight gain under extreme conditions [1]
99.0%: Purity % ([3]; 40° C., 30 days, open flask)
99.1%: Purity % ([3]; 60° C., 10 days, open flask)
96.2%: Purity % [3, 14]
99.2%: Purity % [3, 12]
good: chemical stability ([2]; 6 months) | physical stability ([2]; 6 months) | chemical stability under high humidity conditions ([3]; 30 days) | physical stability ([3]; 30 days)

— patent US20250382287A1, “PHARMACEUTICALLY ACCEPTABLE SALT AND CRYSTAL FORM OF NITROGEN-CONTAINING BRIDGE HETEROCYCLIC DERIVATIVE, AND METHOD FOR PREPARING SAME” (JIANGSU HENGRUI PHARMACEUTICALS CO., LTD., priority 2022, published 2025)
